“Also recorded” adds a separate entry of the source. Bridge positions count the residues as written; N and C are the ends. Square brackets hold non-standard residues; d marks the D form. Ends that are not written are not given here. Peptide text beside a SMILES is read from it. R8 = C=CCCCCCC[C@@](C)(N)C(=O)O; S5 = C=CCCC[C@](C)(N)C(=O)O; Sar = CNCC(=O)O
Legend:
[1] = Total Antioxidant Capacity (TAC) assay; settings: highest peptide concentration 1.5 mM
Description: As previously reported, the TAC (Total Antioxidant Capacity) Assay (Cell Biolabs, Inc, San Diego, Calif.) was used to measure the antioxidant capacity of the PIC1 variants based on the reduction of copper (II) to copper (I). The kit protocol was performed per the manufacturer's recommendations.
The antioxidant properties for the PIC1 variants were evaluated in a Total Antioxidant Capacity (TAC) assay, as previously reported. Total antioxidant activity over a range of peptide concentrations were determined for the stapled and the D-amino acid peptides based on the PA-I8Sar and PA-C9Sar backbones (FIG. 8A-8D), with the activity of the highest peptide concentration reported (1.5 mM) (FIGS. 4A and B, respectively). […] For the D-amino acid variants, there was variation in the amount of antioxidant activity with the peptides having similar, slightly lower and slightly higher levels of total antioxidant capacity. In contrast, stapled peptides (PA-0135 through -0140) as well as combination of stapled and D-amino acid peptides had reduced total antioxidant capacity (FIG. 4A).

[2] = test system: complement activity; assay: Hemolytic assay of plasma after IV infusion into rats; type: in vivo, rat; settings: IV in Wistar rats; early time points at the highest dose
Description: Male Wistar rats with indwelling jugular catheters were administered PA-0117, -0127, -0130, and -0133 with groups of three animals receiving 20, 200 and 400 mg/kg of the compound as a single, bolus, IV infusion. A control group of rats received an infusion of saline IV. At various time points after infusion (0.5, 2, 5, 20, 60, 120, 240, 480, 1440 minute) an aliquot of blood was drawn and plasma isolated and frozen at −70° C. pending analysis. Animals were sacrificed after the terminal blood draw and a gross necropsy performed.
PA-0117 could not be analyzed as no functional complement activity was obtained from the plasma samples. […] PA-0117 was analyzed in a C1q target acquisition assay (C1q binding assay) as described in Example 1 (FIG. 9). […] PA-0127 and -0130 levels were determined by coating the plate with the plasma samples and directly detecting the peptides by rabbit antibody raised against PA-0020 (peptide sequence […]; SEQ ID NO: 57) (FIGS. 10B and 11B). […] PA-0133 could not be detected by the available antibodies.

[3] = test system: human neutrophils; assay: NETosis assay (free DNA, PicoGreen); type: cell-based; settings: peptide 2 mM; neutrophils stimulated with PMA and H2O2
Description: Free DNA as a marker for NET formation was measured by PicoGreen as previously described. Briefly, 2.0×10^6 human neutrophils in 96-well plates were stimulated with 12 nM PMA and 0.05% H2O2 in RPMI with or without the indicated peptide variants (2 mM) for 2.5 hr in a 37° C. humified incubator supplemented with 5% CO2, allowing NETosis to occur. Neutrophils in RPMI alone served as a negative control. Fifty units of […] (Fisher) were added to each well to allow for digestion of released extracellular DNA for 10 min at 37° C. The preparation was then aliquoted into an adjacent well and mixed 1:1 with prepared PICO green reagent (Fisher). The fluorescence was then quantified on a BioTek microplate reader at excitation 485 nm/emission 528 nm.

[4] = ABO incompatibility hemolytic assay of complement activity (CH50-type); type: cell-based, human; settings: peptide 0.8 mg/ml (~0.5 mM); read-out: decrease of ABO hemolysis compared to PA-I8Sar
Description: FIG. 1A-1B show PIC1 peptides' inhibition of complement activation in an ABO incompatibility assay. […] Inhibition of ABO incompatibility hemolysis in a CH50-type assay. Peptides are at a final concentration of 0.5 mM. Values are represented as a percent of the positive control, which consists of human O sera and AB red blood cells in GVBS^++ buffer. Data are the means of n=3 independent experiments±SEM.
For hemolytic complement assays, human red blood cells (RBCs) from type AB donors were purified, washed, and standardized to 1.0×10^9 cells/ml, as previously described. Human sera from type O donors at a 15% final concentration was combined with 0.5 mM of the peptides and the volume was brought up to 0.2 ml with GVBS^++ and 5.0×10^7 RBCs. The samples were incubated for 1 hour at 37° C. and then spun at 3,000 rpm for 5 minutes and the supernatant was collected and read at 412 nm. Values are represented as a percent of the positive control, which consists of human O sera and AB red blood cells in GVBS^++ buffer.
To assess the extent to which the peptide variants inhibit antibody-initiated complement activation, an ABO incompatibility ex vivo assay was utilized in which purified erythrocytes from a ‘type AB+’ donor are incubated with sera from a ‘type O’ subject containing anti-A and anti-B antibodies. Peptides were tested at a concentration of 0.8 mg/ml (˜0.5 mM). […] D-amino acid variants PA-0127 and PA-0133 decreased ABO hemolysis by 20% (P value=0.083) and 25% (P value=0.076), respectively. […]

[5] = target: T1, C1q (Homo sapiens, UniProt P02745+P02746+P02747); assay: C1q binding ELISA-type assay; settings: half-maximal binding from binding curves
T1 construct: purchased Complement Technology (Tyler, Tex.)
T1 sequence (P02745 23-245): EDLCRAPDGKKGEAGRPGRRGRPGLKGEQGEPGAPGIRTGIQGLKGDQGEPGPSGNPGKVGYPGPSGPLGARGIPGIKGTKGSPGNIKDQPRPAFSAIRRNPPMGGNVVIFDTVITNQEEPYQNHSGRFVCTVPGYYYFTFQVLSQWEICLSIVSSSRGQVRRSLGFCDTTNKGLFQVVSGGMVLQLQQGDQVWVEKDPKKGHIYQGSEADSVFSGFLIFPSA
T1 sequence (P02746 28-253): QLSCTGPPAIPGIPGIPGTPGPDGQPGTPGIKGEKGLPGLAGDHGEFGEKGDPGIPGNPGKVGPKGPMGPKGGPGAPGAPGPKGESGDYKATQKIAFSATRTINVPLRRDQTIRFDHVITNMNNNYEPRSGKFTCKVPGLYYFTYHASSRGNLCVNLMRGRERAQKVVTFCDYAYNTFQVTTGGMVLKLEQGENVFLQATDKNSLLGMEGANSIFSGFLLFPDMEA
T1 sequence (P02747 29-245): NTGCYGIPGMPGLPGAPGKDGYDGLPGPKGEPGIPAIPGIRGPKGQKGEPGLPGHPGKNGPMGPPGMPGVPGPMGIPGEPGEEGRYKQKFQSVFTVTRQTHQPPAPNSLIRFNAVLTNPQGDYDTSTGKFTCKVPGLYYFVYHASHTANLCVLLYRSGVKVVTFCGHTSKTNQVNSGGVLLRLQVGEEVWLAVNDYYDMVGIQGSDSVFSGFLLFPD
Description: The C1q binding assay was performed as previously described. Briefly, an Immunlon-2 HB ELISA plate was coated with 1 μg/ml C1q in bicarbonate buffer overnight at 4° C. The plates were washed with PBS-T (phosphate buffered saline+0.1% Tween) and then blocked with 1% gelatin/PBS for 2 hours at room temperature. After washing, the plates were incubated with the peptides starting at 2.5 mg/ml and then serially diluted in 1% gelatin/PBS for 1 hour at room temperature followed by washing. Plates were then probed with rabbit antibody raised against the lead peptide […] (SEQ ID NO: 2) that lacked PEGylation at 1:1000 in 1% gelatin/PBS for 1 hour at room temperature followed by a goat anti-rabbit HRP (Sigma Aldrich, St Louis, Mo.) at 1:1,000 in 1% gelatin/PBS for 1 hour at room temperature with a washing step in between. After addition of TMB substrate solution to the wells, the reaction was stopped using 1N H2SO4, and the plate read on a BioTek Synergy HT plate reader at 450 nm.
The astrovirus capsid protein and the PIC1 molecules derived from it inhibit classical complement pathway activation by binding to the pattern recognition molecule C1q. The inventors next tested peptide variant binding to C1q in an ELISA-type assay in which C1q is used as the capture substrate and bound peptide detected with a rabbit polyclonal antibody against the peptide portion of PA-dPEG24 ([…]-d24; SEQ ID NO: 3). Binding curves were derived for the stapled and D-amino acid peptides based on the PA-I8Sar and PA-C9Sar (FIG. 6A-6D) backbone, from which half-maximal binding concentrations were calculated (FIGS. 2A and B, respectively). […] For the D-amino acid variants, all peptides in which C1q binding was detected, had variable but increased binding to C1q compared to PA-I8Sar (FIG. 2A). For the peptides based on the PA-C9Sar backbone, with the exception of PA-0148, C1q was bound to the same degree or greater than the parent peptide (FIG. 2B).
The inventors also assessed the ability of RLS-0127* and RLS-0133* to inhibit MPO activity as determined by inhibition of oxidation of TMB in a plate-based assay. […] Additionally, the inventors assessed the ability of RLS-0127* and RLS-0133* to bind C1q in a plate-based assay in which C1q is coated on the plate and increasing amounts of the peptides are added, followed by primary antibody to the peptides and secondary antibody conjugated to HRP. The plate was then incubated with TMB to give a […] signal that is detected at a wavelength of 450 nm in a plate reader.

For `CC[C@H](C)[C@H](N)C(=O)N[C@@H](C)C(=O)N[C@@H](CC(C)C)C(=O)N[C@H](C(=O)N[C@@H](CC(C)C)C(=O)N[C@@H](CCC(=O)O)C(=O)N1CCC[C@H]1C(=O)N(C)CC(=O)N[C@@H](CS)C(=O)N[C@@H](CS)C(=O)N[C@@]1(C)CCCC=CCCC[C@@](C)(C(=O)O)NC(=O)[C@H](C)NC(=O)[C@H](CCCNC(=N)N)NC(=O)[C@H](CCC(=O)O)NC1=O)[C@@H](C)CC` [PA-0116, IALILEP(Sar)CCS5ERAS5] (H-IALILEP[Sar]CC[S5]ERA[S5]-OH; staple 11-15), the “total antioxidant capacity compared with PA-I8Sar” value [1] was “increased activity; also recorded: superior antioxidant activity”.

With `CC[C@H](C)[C@H](N)C(=O)N[C@@H](C)C(=O)N[C@@H](CC(C)C)C(=O)N[C@H](C(=O)N[C@@H](CC(C)C)C(=O)N[C@@H](CCC(=O)O)C(=O)N1CCC[C@H]1C(=O)N(C)CC(=O)N[C@@H](CS)C(=O)N[C@@H](CS)C(=O)N[C@@H](CCC(N)=O)C(=O)N[C@@H](CCC(=O)O)C(=O)N[C@@H](CCCNC(=N)N)C(=O)N[C@@H](C)C(=O)N[C@H](C)C(=O)O)[C@@H](C)CC` [PA-0133, IALILEP(Sar)CCQERAdA] (HELM PEPTIDE1{I.A.L.I.L.E.P.[Sar].C.C.Q.E.R.A.[dA]}$$$$V2.0) the “inhibition of complement activity in the hemolytic assay of rat plasma” value [2] was “inhibition of complement activity”, the “reduction of free DNA (marker of NETosis)” value [3] was “reduction in free DNA similar to that of the PA-I8Sar control; also recorded: ability to inhibit NET formation” and the decrease in ABO hemolysis compared to reference peptide [4] was 25%.

For “IALILR8P(Sar)CCQES5AA (IALIL[R8]P[Sar]CCQE[S5]AA; bridges not given here; also: R8/S5 6-13 may or may not be stapled) [PA-0114]”, the “total antioxidant capacity compared with PA-I8Sar” value [1] was “reduction in total antioxidant capacity”.

For “IALILS5P(Sar)CS5QERAA (IALIL[S5]P[Sar]C[S5]QERAA; staple 6-10) [PA-0119]”, the “binding to C1q compared with PA-I8Sar” value [5] was “markedly increased binding to C1q”.

In the case of “IALR8LEPI(Sar)CS5ERAA (IAL[R8]LEPI[Sar]C[S5]ERAA; bridges not given here; also: R8/S5 4-11 may or may not be stapled) [PA-0147]”, the “total antioxidant capacity compared with PA-C9Sar” value [1] is reported as “maintained similar activity”.
